Results from article PMC5075098, “Preclinical Evaluation of the Stability, Safety, and Efficacy of CD101, a Novel Echinocandin” (Antimicrobial Agents and Chemotherapy, 2016).
Values after ≈ are worked out from the molar mass of the structure shown. Read-outs that look alike come from different tables or passages of the source. Blank lines part the entries; values can stand above or below the molecule they belong to. Starred links: 1 amine or outer side, 2 acyl side, 3 side chain; linkers in the order of their positions; H or OH if unused. Positions of bridges follow the written chain, without caps; N, C: chain ends. Non-standard residues stand in square brackets, D forms with d. Residues, ends and D or L forms follow the SMILES beside them. *: point of attachment. pTerphenylCO(4''-OnC5H11) = CCCCCOc1ccc(-c2ccc(-c3ccc(C(=O)*)cc3)cc2)cc1; Orn(4R-OH,5R-OH) = O=C([C@H](C[C@@H](O)[C@@H](O)N[*:3])N[*:1])[*:2]; hTyr(3S-OH,4S-OH) = N[C@H](C(=O)O)[C@H](O)[C@@H](O)c1ccc(O)cc1; Pro(3S-OH,4S-Me) = C[C@H]1CN[C@H](C(=O)O)[C@H]1O; Hyp = O=C(O)[C@@H]1C[C@@H](O)CN1

Columns and labels:
[1] = tested on: C. albicans R303; test: microbe, parasite or virus in culture; conditions: Candida albicans, R303, 24 h
[2] = tested on: C. albicans R303; test: Neutropenic mouse model of C. albicans infection, kidney colony counts
Description: Immunosuppression was induced by two intraperitoneal (i.p.) injections of cyclophosphamide at 150 mg/kg 4 days before and 100 mg/kg 1 day before inoculation. […] The animals in the fluconazole group were sacrificed 48 h after infection.

[3] = Plasma protein binding, ultracentrifugation; assay type: in vitro ADME; conditions: human, ∼500,000 × g 2.5 h at 37°C, LC-MS/MS, SEM, read-out: % of protein bound (SEM) (converted)
Description: Ultracentrifugation ([15]) was used to compare human plasma protein binding of CD101 and anidulafungin. […] Following ultracentrifugation, the supernatant was transferred to a microtiter plate containing 50 μl plasma for matrix-matching purposes and quenched with 400 μl of cold acetonitrile (ACN) with 0.1% formic acid containing diclofenac as an internal standard. Quenched samples were centrifuged for 5 min at 10°C (e.g., 3,100 rpm [2,000 × g]) to sediment the precipitated proteins, and 50 μl supernatant was transferred to a microtiter plate containing 100 μl of water prior to analysis by LC-MS/MS. The percentage bound was the difference between 100% and the percentage free (the ratio of the concentration in supernatant to the total concentration).

[4] = 2-week repeat-dose toxicity and hepatotoxicity screening; assay type: in vivo, Sprague-Dawley rats
Description: Dosing solutions were prepared in a vehicle comprising 5% mannitol containing 2.5% polysorbate 80 (Tween 80) in 0.3% acetic acid.
Animals were randomly assigned to dose groups and stratified by weight to achieve similar group mean body weights (males, 255 to 318 g; females, 192 to 215 g). Blood, urine, and liver samples (excised and preserved in 10% neutral buffered formalin) were obtained on day 15. Plasma liver enzyme levels were assessed. Liver tissues were processed to paraffin blocks and prepared for slides. Slides were stained with hematoxylin and eosin. Hematology data were collected using the Advia 120 hematology analyzer. Coagulation data were collected using the Diagnostica STA compact coagulation analyzer. Clinical chemistry data were collected using the AU400 chemistry analyzer. Qualitative and quantitative urinalysis was recorded using iRICELL 1500 UA analyzer. Clinical effects were assessed for determination of the maximum tolerated dose (MTD).
Statistical evaluations were performed on in-life and clinical pathology numerical data to determine statistical significance following a decision tree. First, the homogeneity of the data was determined by Bartlett's test. If the data were homogeneous, a one-way analysis of variance was performed to assess statistical significance. If statistically significant differences between the means were found, Dunnett's test was used to determine the degree of significance from the control means (P < 0.05, P < 0.01, and P < 0.001). If the data were nonhomogeneous, the Kruskal-Wallis nonparametric analysis was performed to assess statistical significance. If statistically significant differences between the means were found (P < 0.05, P < 0.01, and P < 0.001), the Mann-Whitney U test was used to determine the degree of significance from the control means (P < 0.05, P < 0.01, and P < 0.001).

[5] = Reactive metabolite screening (glutathione trapping); assay type: in vitro ADME; conditions: PBS pH 7.4, excess GSH, 37°C, LC with high-resolution MS
Description: Samples were diluted to 10 μg/ml into 50:50 acetonitrile-water with 0.1 formic acid. Samples were analyzed by LC (Agilent 1100) with high-resolution MS (Waters quadrupole time of flight [Q-TOF] Premier mass spectrometer with electrospray interface) with concurrent low- and high-energy scans to obtain full-scan parent and product fragment ions. The analytical column was a Phenomenex Kinetex (2.6-μm C18, 100 by 3.0 mm). Waters MassLynx 4.1 software was used for data analysis.

[6] = tested on: C. albicans R303; conditions: CLSI broth microdilution, read after 24 h at 35°C, prominent growth inhibition (∼50%)
[7] = after 44 h; cited from earlier work
Text: CD101, a novel echinocandin being developed as a high-exposure, once-weekly intravenous (i.v.) formulation for the treatment and prevention of systemic fungal infections, was designed to be chemically and metabolically stable to avoid hepatotoxicity while retaining the antifungal activity of an echinocandin.

[8] = tested on: A. fumigatus (ATCC 13073); test: MEC/MIC, CLSI broth microdilution; conditions: 24 h at 35°C, rounded/compact hyphal morphology
[9] = tested on: A. fumigatus (ATCC 13073); test: Neutropenic mouse model of A. fumigatus infection, survival; conditions: BID for 5 days; CD101 all dose groups and anidulafungin 1 and 5 mg/kg i.v. (P < 0.05); amphotericin B 0.3 mg/kg i.p.
[10] = anidulafungin 40 mg/kg/day i.v. 14 days, rats, relative to controls, P ≤ 0.001
[11] = anidulafungin 40 mg/kg/day i.v. 14 days, rats, P ≤ 0.001
[12] = anidulafungin 40 mg/kg/day i.v. 14 days, rats, P ≤ 0.01

MIC [1]: 2 µg/mL (≈ 6.53 µM)
SMILES: OC(Cn1cncn1)(Cn1cncn1)c1ccc(F)cc1F [fluconazole, reference compound]
reduction in CFU per gram of paired kidneys relative to vehicle ([2]; 20 mg/kg oral, 2 h after infection, 48 h): 87%
log reduction in CFU per gram relative to vehicle ([2]; 20 mg/kg oral, 48 h): 1.1 log

SMILES: CCCCCOc1ccc(-c2ccc(-c3ccc(C(=O)N[C@H]4C[C@@H](O)[C@@H](O)NC(=O)[C@@H]5[C@@H](O)[C@@H](C)CN5C(=O)[C@H]([C@@H](C)O)NC(=O)[C@H]([C@H](O)[C@@H](O)c5ccc(O)cc5)NC(=O)[C@@H]5C[C@@H](O)CN5C(=O)[C@H]([C@@H](C)O)NC4=O)cc3)cc2)cc1 [anidulafungin] ({pTerphenylCO(4''-OnC5H11)}-[Orn(4R-OH,5R-OH)]T[Hyp][hTyr(3S-OH,4S-OH)]T[Pro(3S-OH,4S-Me)]; lactam 1-C)
fraction unbound ([3]; 1 μg/ml): 0.022
fraction unbound ([3]; 5 μg/ml): 0.014
repeat-dose systemic or target organ toxicity ([4]; 14-day i.v. infusion, rats, CD101 20 mg/kg/day, anidulafungin 40 mg/kg/day (comparable exposure)): severe hemolytic anemia and liver toxicity
spleen finding upon necropsy ([4]; anidulafungin 40 mg/kg/day i.v. 14 days, rats): dark and enlarged spleens
increase in mean alkaline phosphatase (ALP) [4, 10]: up to 47%
increase in mean aspartate aminotransferase (AST) [4, 10]: up to 68%
increase in total bilirubin [4, 10]: up to 2 fold
increase in mean alanine transaminase (ALT) ([4]; anidulafungin 40 mg/kg/day i.v. 14 days, rats, relative to controls, P ≤ 0.05): up to 27%
decrease in the albumin/globulin ratio [4, 11]: up to 15%
increases in platelets [4, 11]: up to 44%
increases in reticulocyte (polychromasia), neutrophil, and eosinophil counts [4, 11]: up to 4 fold
decreases in activated partial thromboplastin time [4, 12]: up to 23%
decreases in red blood cells (RBC), hemoglobin, and hematocrit [4, 12]: up to 19%
increases in globulin [4, 12]: up to 19%
increases in serum cholesterol [4, 12]: up to 52%
reduced body weights and food consumption, decrease relative to controls ([4]; anidulafungin 40 mg/kg/day i.v. infusion 14 days, rats, P ≤ 0.05): up to 9%
microscopic changes in the liver ([4]; day 15, H&E, CD101 2, 6, or 20 mg/kg/day, anidulafungin 40 mg/kg/day (some of the females)): minimal to moderate single-cell necrosis affecting the hepatocytes
GSH adduct formation (reactive intermediate) [5]: did form a GSH adduct
MIC [6]: 0.03 µg/mL (≈ 0.0263 µM)
% remaining in human plasma [7]: 7%
MEC [8]: 0.004 µg/mL
10-day survival rate compared to the vehicle group [9]: significant increase
log reduction in CFU per gram relative to vehicle ([2]; 0.6 mg/kg single i.v. dose, 24, 48, 72 h): up to 2.7 log
antimicrobial effect (≥99%, 2-log reduction in CFU per gram) ([2]; anidulafungin 0.6 mg/kg i.v., at 24 and 48 h): significant

SMILES: C[C@@H]1[C@H](O)[C@@H](C)/C=C/C=C/C=C/C=C/C=C/C=C/C=C/[C@H](O[C@@H]2O[C@H](C)[C@@H](O)[C@H](N)[C@@H]2O)C[C@@H]2O[C@](O)(C[C@@H](O)C[C@@H](O)[C@H](O)CC[C@@H](O)C[C@@H](O)CC(=O)O[C@H]1C)C[C@H](O)[C@H]2C(=O)O [amphotericin B, reference compound]
10-day survival rate compared to the vehicle group [9]: significant increase
